Assays:
WEE1 = molecular target: T1, WEE1 (Homo sapiens, UniProt P30291+Q96SW2); assay: Western-blot assay of substrate protein degradation in hPBMCs, WEE1; type: cell-based; settings: 24 hours of compound treatment
T1 construct: endogenous in cells; host or cells: hPBMCs (Milecell Biotechnologies)

IKZF1 = molecular target: T2, IKZF1 (Homo sapiens, UniProt Q13422+Q96SW2); assay: Western-blot assay of substrate protein degradation in hPBMCs, IKZF1; type: cell-based; settings: 24 hours of compound treatment
T2 construct: endogenous in cells; host or cells: hPBMCs (Milecell Biotechnologies)

IKZF2 = molecular target: T3, IKZF2 (Homo sapiens, UniProt Q96SW2+Q9UKS7); assay: Western-blot assay of substrate protein degradation in hPBMCs, IKZF2; type: cell-based; settings: 24 hours of compound treatment
T3 construct: endogenous in cells; host or cells: hPBMCs (Milecell Biotechnologies)

IKZF3 = molecular target: T4, IKZF3 (Homo sapiens, UniProt Q96SW2+Q9UKT9); assay: Western-blot assay of substrate protein degradation in hPBMCs, IKZF3; type: cell-based; settings: 24 hours of compound treatment
T4 construct: endogenous in cells; host or cells: hPBMCs (Milecell Biotechnologies)

CK1α = molecular target: T5, CK1α (Homo sapiens, UniProt P48729+Q96SW2); assay: Western-blot assay of substrate protein degradation in hPBMCs, CK1α; type: cell-based; settings: 24 hours of compound treatment
T5 construct: endogenous in cells; host or cells: hPBMCs (Milecell Biotechnologies)

GSPT1 = molecular target: T6, GSPT1 (Homo sapiens, UniProt P15170+Q96SW2); assay: Western-blot assay of substrate protein degradation in hPBMCs, GSPT1; type: cell-based; settings: 24 hours of compound treatment
T6 construct: endogenous in cells; host or cells: hPBMCs (Milecell Biotechnologies)

[1] = molecular target: T7, human Cereblon WT GST-tagged protein (Homo sapiens, UniProt Q96SW2); assay: CRBN-binding affinity by HTRF (CEREBLON BINDING kit); settings: HTRF inhibitory activity, CEREBLON BINDING kit; read-out: HTRF IC50
T7 construct: purchased CISBIO 64BDCRBNPEH

[2] = compounds tested at 50 nM and 500 nM (concentration of the table not stated)
[3] = 50 nM and 500 nM tested (concentration behind the class not stated)

T4 sequence (Q9UKT9 whole entry): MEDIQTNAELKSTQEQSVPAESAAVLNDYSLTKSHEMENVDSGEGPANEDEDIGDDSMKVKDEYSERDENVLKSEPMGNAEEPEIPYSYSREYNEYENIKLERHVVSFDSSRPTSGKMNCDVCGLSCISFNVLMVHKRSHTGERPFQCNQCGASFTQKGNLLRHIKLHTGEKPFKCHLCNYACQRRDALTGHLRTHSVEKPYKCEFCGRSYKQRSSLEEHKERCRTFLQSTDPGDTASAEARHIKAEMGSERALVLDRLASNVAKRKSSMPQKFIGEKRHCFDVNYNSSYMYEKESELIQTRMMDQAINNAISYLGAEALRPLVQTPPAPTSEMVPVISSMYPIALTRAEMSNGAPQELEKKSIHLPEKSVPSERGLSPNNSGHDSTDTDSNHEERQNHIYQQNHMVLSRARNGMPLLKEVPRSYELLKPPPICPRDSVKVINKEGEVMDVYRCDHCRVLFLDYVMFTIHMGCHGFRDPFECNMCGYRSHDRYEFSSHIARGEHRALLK
T4 sequence (Q96SW2 whole entry): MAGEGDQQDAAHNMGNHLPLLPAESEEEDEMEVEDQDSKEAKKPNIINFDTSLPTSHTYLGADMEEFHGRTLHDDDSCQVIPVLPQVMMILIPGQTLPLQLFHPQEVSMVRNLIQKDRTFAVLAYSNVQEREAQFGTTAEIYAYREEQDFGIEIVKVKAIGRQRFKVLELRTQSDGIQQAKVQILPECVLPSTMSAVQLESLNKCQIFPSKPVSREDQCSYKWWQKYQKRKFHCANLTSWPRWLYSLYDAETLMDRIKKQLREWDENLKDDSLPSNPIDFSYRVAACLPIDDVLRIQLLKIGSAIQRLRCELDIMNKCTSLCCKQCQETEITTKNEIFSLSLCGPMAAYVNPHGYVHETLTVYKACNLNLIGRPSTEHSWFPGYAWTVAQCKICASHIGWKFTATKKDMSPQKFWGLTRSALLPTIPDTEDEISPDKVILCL
T4 sequence (Q16531 whole entry partner): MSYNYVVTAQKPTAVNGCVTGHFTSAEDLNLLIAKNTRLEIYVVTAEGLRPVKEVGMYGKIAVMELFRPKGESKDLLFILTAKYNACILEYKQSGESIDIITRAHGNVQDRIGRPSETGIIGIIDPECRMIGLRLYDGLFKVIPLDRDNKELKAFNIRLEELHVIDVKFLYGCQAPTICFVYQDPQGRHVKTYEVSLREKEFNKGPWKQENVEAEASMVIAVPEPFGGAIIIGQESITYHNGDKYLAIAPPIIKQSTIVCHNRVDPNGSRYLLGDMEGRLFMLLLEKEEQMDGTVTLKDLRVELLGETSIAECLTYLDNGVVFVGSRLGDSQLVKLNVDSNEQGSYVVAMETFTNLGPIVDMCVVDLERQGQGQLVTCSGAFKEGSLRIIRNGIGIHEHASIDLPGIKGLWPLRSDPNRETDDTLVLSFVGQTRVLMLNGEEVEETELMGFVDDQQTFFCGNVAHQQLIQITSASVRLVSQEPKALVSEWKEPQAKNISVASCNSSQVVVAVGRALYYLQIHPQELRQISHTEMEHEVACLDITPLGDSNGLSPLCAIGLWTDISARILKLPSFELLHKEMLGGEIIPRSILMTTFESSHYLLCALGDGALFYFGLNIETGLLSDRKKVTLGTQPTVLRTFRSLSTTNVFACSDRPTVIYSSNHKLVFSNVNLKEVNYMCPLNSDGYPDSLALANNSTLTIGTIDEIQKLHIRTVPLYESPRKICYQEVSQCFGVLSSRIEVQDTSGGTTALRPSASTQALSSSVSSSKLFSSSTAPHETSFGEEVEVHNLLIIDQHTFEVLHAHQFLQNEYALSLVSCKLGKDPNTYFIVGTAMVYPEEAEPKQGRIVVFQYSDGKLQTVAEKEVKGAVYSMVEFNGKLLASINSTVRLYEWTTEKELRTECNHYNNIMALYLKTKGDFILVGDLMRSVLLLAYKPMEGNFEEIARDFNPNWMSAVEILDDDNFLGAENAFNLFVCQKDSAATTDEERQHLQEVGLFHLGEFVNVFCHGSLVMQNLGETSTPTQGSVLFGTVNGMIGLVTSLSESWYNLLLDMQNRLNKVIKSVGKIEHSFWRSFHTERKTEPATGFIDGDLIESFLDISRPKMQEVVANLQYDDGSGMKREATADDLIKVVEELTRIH
T5 sequence (P48729 whole entry): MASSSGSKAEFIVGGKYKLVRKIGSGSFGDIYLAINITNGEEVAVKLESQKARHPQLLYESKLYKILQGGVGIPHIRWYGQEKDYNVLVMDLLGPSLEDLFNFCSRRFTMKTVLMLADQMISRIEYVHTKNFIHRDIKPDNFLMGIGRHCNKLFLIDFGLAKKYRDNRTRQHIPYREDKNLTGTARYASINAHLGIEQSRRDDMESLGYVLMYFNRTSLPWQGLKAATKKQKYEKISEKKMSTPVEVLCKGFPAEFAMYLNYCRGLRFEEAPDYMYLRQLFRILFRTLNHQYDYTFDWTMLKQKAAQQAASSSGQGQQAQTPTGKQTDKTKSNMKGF
T5 sequence (Q96SW2 whole entry): as the sequence (Q96SW2 whole entry) above
T5 sequence (Q16531 whole entry partner): as the sequence (Q16531 whole entry partner) above
T3 sequence (Q9UKS7 whole entry): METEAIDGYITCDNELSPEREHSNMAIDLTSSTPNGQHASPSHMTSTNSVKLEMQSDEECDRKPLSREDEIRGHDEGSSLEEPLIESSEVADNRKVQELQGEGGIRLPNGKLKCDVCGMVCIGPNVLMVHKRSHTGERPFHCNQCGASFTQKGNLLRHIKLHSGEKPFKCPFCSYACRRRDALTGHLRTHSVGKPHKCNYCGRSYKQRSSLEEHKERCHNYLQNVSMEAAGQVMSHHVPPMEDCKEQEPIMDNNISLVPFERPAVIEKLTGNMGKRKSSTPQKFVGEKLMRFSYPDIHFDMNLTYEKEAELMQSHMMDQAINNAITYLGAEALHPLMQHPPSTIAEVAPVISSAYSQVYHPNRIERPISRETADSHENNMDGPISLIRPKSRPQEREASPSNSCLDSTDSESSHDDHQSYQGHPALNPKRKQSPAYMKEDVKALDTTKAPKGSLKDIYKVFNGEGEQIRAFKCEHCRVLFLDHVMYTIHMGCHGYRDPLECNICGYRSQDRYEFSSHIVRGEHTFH
T3 sequence (Q96SW2 whole entry): as the sequence (Q96SW2 whole entry) above
T3 sequence (Q16531 whole entry partner): as the sequence (Q16531 whole entry partner) above
T1 sequence (P30291 whole entry): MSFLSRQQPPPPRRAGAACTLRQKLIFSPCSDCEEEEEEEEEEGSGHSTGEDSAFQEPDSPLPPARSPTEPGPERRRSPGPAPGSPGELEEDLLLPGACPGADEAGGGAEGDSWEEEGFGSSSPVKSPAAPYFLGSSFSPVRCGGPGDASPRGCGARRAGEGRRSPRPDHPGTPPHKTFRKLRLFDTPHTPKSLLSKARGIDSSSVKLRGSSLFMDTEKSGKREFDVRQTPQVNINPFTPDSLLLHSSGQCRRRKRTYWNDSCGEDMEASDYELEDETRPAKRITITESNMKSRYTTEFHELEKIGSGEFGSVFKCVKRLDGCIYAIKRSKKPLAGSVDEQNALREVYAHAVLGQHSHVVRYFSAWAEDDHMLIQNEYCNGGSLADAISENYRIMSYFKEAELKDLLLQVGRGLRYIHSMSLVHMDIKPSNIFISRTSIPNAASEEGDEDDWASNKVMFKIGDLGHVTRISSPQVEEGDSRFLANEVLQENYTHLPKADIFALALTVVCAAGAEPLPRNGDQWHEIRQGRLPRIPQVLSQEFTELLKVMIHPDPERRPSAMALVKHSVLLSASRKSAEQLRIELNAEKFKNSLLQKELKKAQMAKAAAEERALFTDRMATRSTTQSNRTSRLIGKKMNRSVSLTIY
T1 sequence (Q96SW2 whole entry): as the sequence (Q96SW2 whole entry) above
T1 sequence (Q16531 whole entry partner): as the sequence (Q16531 whole entry partner) above
T2 sequence (Q13422 whole entry): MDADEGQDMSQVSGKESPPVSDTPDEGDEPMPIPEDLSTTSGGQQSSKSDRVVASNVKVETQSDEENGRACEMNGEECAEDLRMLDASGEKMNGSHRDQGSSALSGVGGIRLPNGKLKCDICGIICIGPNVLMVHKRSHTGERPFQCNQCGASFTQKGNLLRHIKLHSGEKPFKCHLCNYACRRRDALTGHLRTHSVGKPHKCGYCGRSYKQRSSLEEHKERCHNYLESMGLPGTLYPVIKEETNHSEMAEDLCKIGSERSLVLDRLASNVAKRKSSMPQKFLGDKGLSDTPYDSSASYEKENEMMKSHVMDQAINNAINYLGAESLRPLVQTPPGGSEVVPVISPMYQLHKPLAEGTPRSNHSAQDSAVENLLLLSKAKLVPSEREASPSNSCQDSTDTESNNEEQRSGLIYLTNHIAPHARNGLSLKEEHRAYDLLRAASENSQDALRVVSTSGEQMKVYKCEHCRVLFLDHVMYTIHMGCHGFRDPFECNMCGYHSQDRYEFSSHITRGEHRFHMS
T2 sequence (Q96SW2 whole entry): as the sequence (Q96SW2 whole entry) above
T2 sequence (Q16531 whole entry partner): as the sequence (Q16531 whole entry partner) above
T7 sequence (Q96SW2 whole entry): as the sequence (Q96SW2 whole entry) above

SMILES | Weel substrate protein remaining % (WEE1; [2]) | IKZF 1 substrate protein remaining % (IKZF1; [2]) | IKZF2 substrate protein remaining % (IKZF2; [2]) | IKZF3 substrate protein remaining % (IKZF3; [2]) | CK1a substrate protein remaining % (CK1α; [2]) | GSPT1 substrate protein remaining % (GSPT1; [2]) | IC50 [1] | Weel substrate protein remaining % (WEE1; [3]) | IKZF 1 substrate protein remaining % (IKZF1; [3]) | IKZF2 substrate protein remaining % (IKZF2; [3]) | IKZF3 substrate protein remaining % (IKZF3; [3]) | CK1a substrate protein remaining % (CK1α; [3]) | GSPT1 substrate protein remaining % (GSPT1; [3])
O=C1CCC(N2Cc3cc(CN4CCCC(C5CCNCC5)C4)ccc3C2=O)C(=O)N1 (centres unmarked) [GT-04591, 3-(5-([3,4'-bipiperidin]-1-ylmethyl)-1-oxoisoindolin-2-yl)piperidine-2,6-dione] | B (80%< substrate protein remaining %≤ 100%) | B (80%< substrate protein remaining %≤ 100%) | B (80%< substrate protein remaining %≤ 100%) | B (80%< substrate protein remaining %≤ 100%) | A (0% ≤ substrate protein remaining % ≤ 80%) | A (0% ≤ substrate protein remaining % ≤ 80%) | 1500 to 1900 nM |  |  |  |  |  | 
Cc1nc(C2CCN(Cc3ccc4c(c3)CN(C3CCC(=O)NC3=O)C4=O)CC2)c2c3c(sc2n1)CCC3 (centres unmarked) [GT-05210, 3-(5-((4-(2-methyl-6,7-dihydro-5H-cyclopenta[4,5]thieno[2,3-d]pyrimidin-4-yl)piperidin-1-yl)methyl)-1-oxoisoindolin-2-yl)piperidine-2,6-dione] | A (0% ≤ substrate protein remaining % ≤ 80%) | A (0% ≤ substrate protein remaining % ≤ 80%) | A (0% ≤ substrate protein remaining % ≤ 80%) | A (0% ≤ substrate protein remaining % ≤ 80%) | A (0% ≤ substrate protein remaining % ≤ 80%) | B (80%< substrate protein remaining %≤ 100%) | 500 to 1000 nM |  |  |  |  |  | 
O=C1CCC(N2Cc3cc(CN4CCN(c5ncncn5)CC4)ccc3C2=O)C(=O)N1 (centres unmarked) [GT-04486, 3-(5-((4-(1,3,5-triazin-2-yl)piperazin-1-yl)methyl)-1-oxoisoindolin-2-yl)piperidine-2,6-dione] | A (0% ≤ substrate protein remaining % ≤ 80%) | A (0% ≤ substrate protein remaining % ≤ 80%) | A (0% ≤ substrate protein remaining % ≤ 80%) | B (80%< substrate protein remaining %≤ 100%) | A (0% ≤ substrate protein remaining % ≤ 80%) | A (0% ≤ substrate protein remaining % ≤ 80%) | 500 to 1000 nM |  |  |  |  |  | 
O=C1CCC(N2C(=O)c3ccc(CN4CCN(c5ncc6ccsc6n5)CC4)cc3C2=O)C(=O)N1 (centres unmarked) [GT-06567, 2-(2,6-dioxopiperidin-3-yl)-5-((4-(thieno[2,3-d]pyrimidin-2-yl)piperazin-1-yl)methyl)isoindoline-1,3-dione] |  |  |  |  |  |  | 1000 to 1500 nM | A (0% ≤ substrate protein remaining % ≤ 80%) | B (80%< substrate protein remaining %≤ 100%) | B (80%< substrate protein remaining %≤ 100%) | B (80%< substrate protein remaining %≤ 100%) | A (0% ≤ substrate protein remaining % ≤ 80%) | A (0% ≤ substrate protein remaining % ≤ 80%)
O=C1CCC(N2Cc3cc(CN4CCN(c5ccc(Cl)cc5Cl)CC4)ccc3C2=O)C(=O)N1 (centres unmarked) [GT-04464, 3-(5-((4-(2,4-dichlorophenyl)piperazin-1-yl)methyl)-1-oxoisoindolin-2-yl)piperidine-2,6-dione] | B (80%< substrate protein remaining %≤ 100%) | B (80%< substrate protein remaining %≤ 100%) | A (0% ≤ substrate protein remaining % ≤ 80%) | B (80%< substrate protein remaining %≤ 100%) | B (80%< substrate protein remaining %≤ 100%) | A (0% ≤ substrate protein remaining % ≤ 80%) | 1000 to 1500 nM |  |  |  |  |  | 
O=C1CCC(N2Cc3cc(CN4CCN(c5ccncc5F)CC4)ccc3C2=O)C(=O)N1 (centres unmarked) [GT-04581, 3-(5-((4-(3-fluoropyridin-4-yl)piperazin-1-yl)methyl)-1-oxoisoindolin-2-yl)piperidine-2,6-dione] | B (80%< substrate protein remaining %≤ 100%) | B (80%< substrate protein remaining %≤ 100%) | A (0% ≤ substrate protein remaining % ≤ 80%) | A (0% ≤ substrate protein remaining % ≤ 80%) | B (80%< substrate protein remaining %≤ 100%) | B (80%< substrate protein remaining %≤ 100%) | 1000 to 1500 nM |  |  |  |  |  | 
O=C1CCC(N2Cc3cc(CN4CCN(c5ccnc(O)c5F)CC4)ccc3C2=O)C(=O)N1 (centres unmarked) [GT-04929, 3-(5-((4-(3-fluoro-2-hydroxypyridin-4-yl)piperazin-1-yl)methyl)-1-oxoisoindolin-2-yl)piperidine-2,6-dione] | B (80%< substrate protein remaining %≤ 100%) | A (0% ≤ substrate protein remaining % ≤ 80%) | B (80%< substrate protein remaining %≤ 100%) | B (80%< substrate protein remaining %≤ 100%) | B (80%< substrate protein remaining %≤ 100%) | A (0% ≤ substrate protein remaining % ≤ 80%) | 500 to 1000 nM |  |  |  |  |  | 
O=C1CCC(N2Cc3cc(CN4CCN(c5ncccc5Cl)CC4)ccc3C2=O)C(=O)N1 (centres unmarked) [GT-04428, 3-(5-((4-(3-chloropyridin-2-yl)piperazin-1-yl)methyl)-1-oxoisoindolin-2-yl)piperidine-2,6-dione] | B (80%< substrate protein remaining %≤ 100%) | B (80%< substrate protein remaining %≤ 100%) | B (80%< substrate protein remaining %≤ 100%) | B (80%< substrate protein remaining %≤ 100%) | B (80%< substrate protein remaining %≤ 100%) | A (0% ≤ substrate protein remaining % ≤ 80%) | < 500 nM |  |  |  |  |  | 
O=C1CCC(N2Cc3cc(CN4CCN(c5c(F)c(F)nc(F)c5F)CC4)ccc3C2=O)C(=O)N1 (centres unmarked) [GT-04499, 3-(1-oxo-5-((4-(perfluoropyridin-4-yl)piperazin-1-yl)methyl)isoindolin-2-yl)piperidine-2,6-dione] | A (0% ≤ substrate protein remaining % ≤ 80%) | A (0% ≤ substrate protein remaining % ≤ 80%) | A (0% ≤ substrate protein remaining % ≤ 80%) | A (0% ≤ substrate protein remaining % ≤ 80%) | A (0% ≤ substrate protein remaining % ≤ 80%) | A (0% ≤ substrate protein remaining % ≤ 80%) | 500 to 1000 nM |  |  |  |  |  | 
Cc1sc2ncnc(N3CCCN(Cc4ccc5c(c4)CN(C4CCC(=O)NC4=O)C5=O)CC3)c2c1C (centres unmarked) [GT-04707, 3-(5-((4-(5,6-dimethylthieno[2,3-d]pyrimidin-4-yl)-1,4-diazepan-1-yl)methyl)-1-oxoisoindolin-2-yl)piperidine-2,6-dione] | B (80%< substrate protein remaining %≤ 100%) | A (0% ≤ substrate protein remaining % ≤ 80%) | A (0% ≤ substrate protein remaining % ≤ 80%) | A (0% ≤ substrate protein remaining % ≤ 80%) | A (0% ≤ substrate protein remaining % ≤ 80%) | A (0% ≤ substrate protein remaining % ≤ 80%) | < 500 nM |  |  |  |  |  | 
O=C1CCC(N2Cc3cc(CN4CCN(c5nc(Cl)nc6ccsc56)CC4)ccc3C2=O)C(=O)N1 (centres unmarked) [GT-04682, 3-(5-((4-(2-chlorothieno[3,2-d]pyrimidin-4-yl)piperazin-1-yl)methyl)-1-oxoisoindolin-2-yl)piperidine-2,6-dione] | B (80%< substrate protein remaining %≤ 100%) | B (80%< substrate protein remaining %≤ 100%) | B (80%< substrate protein remaining %≤ 100%) | B (80%< substrate protein remaining %≤ 100%) | A (0% ≤ substrate protein remaining % ≤ 80%) | A (0% ≤ substrate protein remaining % ≤ 80%) | 500 to 1000 nM |  |  |  |  |  | 

Source: patent EP4745137A1 (Gluetacs Therapeutics (Shanghai) Co., Ltd., priority 2023, dated 2025)
